Assay results from publication PMC10987496, “Activity-stability trade-off observed in variants at position 315 of the GH10 xylanase XynR” (Scientific Reports, 2024).

Target: T1, XynR (WT) (Halalkalibacterium halodurans, UniProt P07528)
T1 construct: gene xynA; pET-21b(+)-XynR expressed in E. coli BL21(DE3), purified on HisTrap (His-tagged); residues 2-359 modelled in 2 chains; catalytic E150/E256
Assay: X-ray crystallography, […] A (co-crystallisation and soaking)
Format: binding
Conditions: 0.35 M xylobiose, Tris-HCl pH 8.0 mixed with reservoir pH 4.6 (0.02 M CaCl2, acetate, MPD), 20 °C; active site, subsites +1 and +2

T1 sequence (P07528 46-396): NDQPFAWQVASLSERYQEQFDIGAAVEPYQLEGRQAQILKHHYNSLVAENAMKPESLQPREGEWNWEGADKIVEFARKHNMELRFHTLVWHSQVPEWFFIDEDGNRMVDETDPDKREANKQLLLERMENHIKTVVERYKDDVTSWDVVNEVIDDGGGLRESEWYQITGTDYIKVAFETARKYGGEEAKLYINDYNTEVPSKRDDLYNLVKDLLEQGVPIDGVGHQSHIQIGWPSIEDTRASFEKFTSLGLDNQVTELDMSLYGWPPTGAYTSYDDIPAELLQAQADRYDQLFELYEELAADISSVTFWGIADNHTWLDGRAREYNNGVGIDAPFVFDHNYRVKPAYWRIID

OC1OC[C@@H](O[C@@H]2OC[C@@H](O)[C@H](O)[C@H]2O)[C@H](O)[C@H]1O (stereo partly shown) [xylobiose]
X-ray crystallography, 1.80 A (co-crystallisation and soaking): we made crystallographic analysis of WT complexed with xylobiose
